Structures can show the parent of a compound that is named as a salt. Where two headings read alike, the source gives them in different places.
Target: T1, IRAK4 (Homo sapiens, UniProt Q9NWZ3)
T1 sequence (Q9NWZ3 1-460): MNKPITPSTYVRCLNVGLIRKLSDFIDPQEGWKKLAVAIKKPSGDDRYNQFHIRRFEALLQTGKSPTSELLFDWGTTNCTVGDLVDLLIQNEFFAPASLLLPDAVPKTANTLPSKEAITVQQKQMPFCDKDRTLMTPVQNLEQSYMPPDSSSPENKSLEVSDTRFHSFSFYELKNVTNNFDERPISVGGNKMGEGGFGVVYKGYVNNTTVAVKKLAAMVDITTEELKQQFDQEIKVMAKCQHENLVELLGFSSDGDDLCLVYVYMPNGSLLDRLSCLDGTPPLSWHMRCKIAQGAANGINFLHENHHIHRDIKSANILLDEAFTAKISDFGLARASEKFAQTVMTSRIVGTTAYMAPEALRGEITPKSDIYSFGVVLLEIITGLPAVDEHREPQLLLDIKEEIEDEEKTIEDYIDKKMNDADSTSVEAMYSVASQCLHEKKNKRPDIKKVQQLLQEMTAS
Assay: biochemical

[1] = IRAK4 Biochemical Assay (1 mM ATP, 2 h) IC50 (μM), 1 mM ATP, 2 h, 100 pM IRAK4

Row | Compound | IC50 | IC50 [1]
1 | CC(C)Oc1cc2nc(C34CCC(C)(C3)OC4)cn2cc1C(=O)Nc1ccn(C)n1 (centres unmarked) [Example 414, 7-Isopropoxy-N-(1-methyl-1H-pyrazol-3-yl)-2-(1-methyl-2-oxabicyclo[2.2.1]heptan-4-yl)imidazo[1,2-a]pyridine-6-carboxamide] | 0.0033 µM | 
2 | COc1cc2nc(C34COC(C)(C3)C4)cn2cc1C(=O)Nc1ccccn1 [Example 1, 7-Methoxy-2-(1-methyl-2-oxabicyclo[2.1.1]hexan-4-yl)-N-(2-pyridyl)imidazo[1,2-a]pyridine-6-carboxamide] | 0.0298 µM | 
3 | CC(C)Oc1cc2nc(C34CCC(C)(CC3)OC4)cn2cc1C(=O)Nc1ccn(C)n1 [Example 571, 7-Isopropoxy-N-(1-methyl-1H-pyrazol-3-yl)-2-(1-methyl-2-oxabicyclo[2.2.2]octan-4-yl)imidazo[1,2-a]pyridine-6-carboxamide] |  | 0.0017 µM
4 | Cn1cc(-c2cccc(NC(=O)c3cn4cc(C56CCC(C)(C5)OC6)nc4cc3OC3CCC3)n2)cn1 (centres unmarked) [Example 542, 7-Cyclobutoxy-N-(6-(1-methyl-1H-pyrazol-4-yl)pyridin-2-yl)-2-(1-methyl-2-oxabicyclo[2.2.1]heptan-4-yl)imidazo[1,2-a]pyridine-6-carboxamide] | 0.0001 µM | 
5 | CC(C)Oc1nc2nc([C@]34CC[C@](C)(C3)OC4)cn2cc1C(=O)Nc1cccn(C(F)F)c1=O (single isomer, unassigned) [Example 629] | 0.0003 µM | 
6 | CCCOc1nc(C(=O)Nc2cccnc2OC)cn2cc(C34COC(C)(C3)C4)nc12 [Example 342, N-(2-methoxypyridin-3-yl)-2-(1-methyl-2-oxabicyclo[2.1.1]hexan-4-yl)-8-propoxyimidazo[1,2-a]pyrazine-6-carboxamide] | 0.001 µM | 
7 | CC(C)Oc1cc2nc(C34COC(C)(C3)C4)cn2cc1C(=O)Nc1cnn2cccnc12 [Example 299, 7-Isopropoxy-2-(1-methyl-2-oxabicyclo[2.1.1]hexan-4-yl)-N-(pyrazolo[1,5-a]pyrimidin-3-yl)imidazo[1,2-a]pyridine-6-carboxamide trifluoroacetate] |  | 0.0005 µM
8 | CCc1c(NC(=O)c2cn3cc(C4CCOCC4)nc3cc2OC)cnn1C [Example 199] | 0.181 µM | 
9 | CCc1cccc(NC(=O)c2cn3cc(C4CCOCC4)nc3c(OC)n2)n1 [Example 86] | 0.034 µM | 
10 | C[C@H](Oc1cc2nc(C34COC(C)(C3)C4)cn2cc1C(=O)Nc1cccc(C(F)F)n1)C1CC1 (single isomer, unassigned) [Example 656] | 0.0002 µM | 
11 | COc1nc(C(=O)Nc2ccnn2C)cn2cc(C3CCOCC3)nc12 [Example 89] | 5.69 µM | 
12 | CC1(C)CC(Oc2cc3nc(C4CC4)cn3cc2C(=O)Nc2cccn(C(F)F)c2=O)C1 [Example 460, 2-Cyclopropyl-N-(1-(difluoromethyl)-2-oxo-1,2-dihydropyridin-3-yl)-7-(3,3-dimethylcyclobutoxy)imidazo[1,2-a]pyridine-6-carboxamide] | 0.0099 µM | 
13 | CC12CCC(c3cn4cc(C(=O)Nc5ccn(CCF)n5)c(OC5CCC5)cc4n3)(CO1)C2 (centres unmarked) [Example 537, 7-Cyclobutoxy-N-(1-(2-fluoroethyl)-1H-pyrazol-3-yl)-2-(1-methyl-2-oxabicyclo[2.2.1]heptan-4-yl)imidazo[1,2-a]pyridine-6-carboxamide] | 0.0063 µM | 
14 | CC(C)Oc1cc2nc(C34COC(C)(C3)C4)cn2cc1C(=O)Nc1ccccn1 [Example 219] | 0.0069 µM | 
15 | CC(C)Oc1cc2nc(C34COC(C)(C3)C4)c(F)n2cc1C(=O)Nc1ccn(C)n1 [Example 327, 3-Fluoro-7-isopropoxy-N-(1-methyl-1H-pyrazol-3-yl)-2-(1-methyl-2-oxabicyclo[2.1.1]hexan-4-yl)imidazo[1,2-a]pyridine-6-carboxamide trifluoroacetate] |  | 0.0372 µM
16 | CC(C)Oc1nc(C(=O)Nc2cccc(C(F)F)n2)cn2cc([C@]34CC[C@](C)(C3)OC4)nc12 (single isomer, unassigned) [Example 589] | 0.0024 µM | 
17 | COc1cccc(NC(=O)c2cn3cc(C45COC(C)(C4)C5)nc3cc2OC)n1 [Example 31] | 0.015 µM | 
18 | CC(C)Oc1cc2nc(C34COC(C)(C3)C4)cn2cc1C(=O)Nc1cccc(C#N)c1F [Example 257, N-(3-cyano-2-fluorophenyl)-7-isopropoxy-2-(1-methyl-2-oxabicyclo[2.1.1]hexan-4-yl)imidazo[1,2-a]pyridine-6-carboxamide trifluoroacetate] |  | 0.0003 µM
19 | CC(C)Oc1nc2nc([C@]34CC[C@](C)(C3)OC4)cn2cc1C(=O)Nc1cnn2cc(F)cnc12 (single isomer, unassigned) [Example 631] | 0.0004 µM | 

Row | Compound | IC50 | IC50 [1]
20 | Cn1ccc(NC(=O)c2cn3cc([C@@]45CC[C@@](C)(C4)OC5)nc3nc2OC2CCCC2)n1 (single isomer, unassigned) [Example 635] | 0.0026 µM | 
21 | CC(C)Oc1cc2nc(C3CC3)cn2cc1C(=O)Nc1cccc(OCC(F)F)n1 [Example 482, 2-Cyclopropyl-N-(6-(2,2-difluoroethoxy)pyridin-2-yl)-7-isopropoxyimidazo[1,2-a]pyridine-6-carboxamide] | 0.0067 µM | 
22 | COc1cc2nc(C3CCOCC3)cn2cc1C(=O)Nc1cccn(C)c1=O [Example 183] | 0.0069 µM | 
23 | CC(C)Oc1cc2nc(C34COC(C)(C3)C4)c(F)n2cc1C(=O)Nc1cccc2ncnn12 [Example 329, N-([1,2,4]triazolo[1,5-a]pyridin-5-yl)-3-fluoro-7-isopropoxy-2-(1-methyl-2-oxabicyclo[2.1.1]hexan-4-yl)imidazo[1,2-a]pyridine-6-carboxamide trifluoroactate] | 0.0012 µM | 
24 | CC(C)Oc1nc(C(=O)Nc2ccn(C)n2)cn2cc([C@@]34CC[C@@](C)(C3)OC4)nc12 (single isomer, unassigned) [Example 592] | 0.0034 µM | 
25 | COc1nc(C(=O)Nc2cccc(C(F)F)n2)cn2cc(C34CCOC(C)(C3)C4)nc12 [Example 234] | 0.0053 µM | 
26 | CC(C)Oc1cc2nc(C34COC(C)(C3)C4)c(F)n2cc1C(=O)Nc1cnn2cccnc12 [Example 328, 3-Fluoro-7-isopropoxy-2-(1-methyl-2-oxabicyclo[2.1.1]hexan-4-yl)-N-(pyrazolo[1,5-a]pyrimidin-3-yl)imidazo[1,2-a]pyridine-6-carboxamide] | 0.006 µM | 
27 | CCC(C)Oc1nc2nc(C34COC(C)(C3)C4)cn2cc1C(=O)Nc1cnn2cc(C)cnc12 (single isomer, unassigned) [Example 642] | 0.0013 µM | 
28 | CC(C)Oc1cc2nc(C34CCC(C)(CC3)OC4)cn2cc1C(=O)Nc1cccn(C)c1=O [Example 574, 7-Isopropoxy-N-(1-methyl-2-oxo-1,2-dihydropyridin-3-yl)-2-(1-methyl-2-oxabicyclo[2.2.2]octan-4-yl)imidazo[1,2-a]pyridine-6-carboxamide] |  | 0.0002 µM
29 | COc1cc2nc(C34CCOC(C)(C3)C4)cn2cc1C(=O)Nc1cccc(C(F)F)n1 [Example 233] | 0.0025 µM | 
30 | CC(C)Oc1nc(C(=O)Nc2cccc(C(F)F)n2)cn2cc(C34COC(CF)(C3)C4)nc12 [Example 338, N-(6-(difluoromethyl)pyridin-2-yl)-2-(1-(fluoromethyl)-2-oxabicyclo[2.1.1]hexan-4-yl)-8-isopropoxyimidazo[1,2-a]pyrazine-6-carboxamide] | 0.0105 µM | 
31 | Cn1nc(NC(=O)c2cn3cc(C45CCC(C)(C4)OC5)nc3cc2OC2CCC2)cc1F (centres unmarked) [Example 419, 7-Cyclobutoxy-N-(5-fluoro-1-methyl-1H-pyrazol-3-yl)-2-(1-methyl-2-oxabicyclo[2.2.1]heptan-4-yl)imidazo[1,2-a]pyridine-6-carboxamide] | 0.0033 µM | 
32 | CC(C)Oc1cc2nc([C@]34CC[C@](C)(C3)OC4)cn2cc1C(=O)Nc1cccn(C)c1=O (single isomer, unassigned) [Example 621] | 0.0014 µM | 
33 | COc1cc2nc(C3CCOCC3)cn2cc1C(=O)Nc1ccn(C2CC2(F)F)n1 (centres unmarked) [Example 197] | 0.166 µM | 
34 | Cc1cc(-n2ccc(NC(=O)c3cn4cc(C56COC(C)(C5)C6)nc4cc3OC3CCC3)n2)ccn1 [Example 522, 7-Cyclobutoxy-2-(1-methyl-2-oxabicyclo[2.1.1]hexan-4-yl)-N-(1-(2-methylpyridin-4-yl)-1H-pyrazol-3-yl)imidazo[1,2-a]pyridine-6-carboxamide] | 0.0005 µM | 
35 | CC(C)Oc1nc2nc(C34COC(C)(C3)C4)cn2cc1C(=O)Nc1cnc2cccnn12 [Example 373, N-(imidazo[1,2-b]pyridazin-3-yl)-7-isopropoxy-2-(1-methyl-2-oxabicyclo[2.1.1]hexan-4-yl)imidazo[1,2-a]pyrimidine-6-carboxamide] | 0.0006 µM | 
36 | CCCOc1nc(C(=O)Nc2cccc(C(F)(F)F)n2)cn2cc(C34COC(C)(C3)C4)nc12 [Example 343, 2-(1-Methyl-2-oxabicyclo[2.1.1]hexan-4-yl)-8-propoxy-N-(6-(trifluoromethyl)pyridin-2-yl)imidazo[1,2-a]pyrazine-6-carboxamide] | 0.0048 µM | 
37 | CC(C)Oc1cc2nc(C34COC(C3)C4)cn2cc1C(=O)Nc1cccc(C(F)F)n1 [Example 544, 2-(2-Oxabicyclo[2.1.1]hexan-4-yl)-N-(6-(difluoromethyl)pyridin-2-yl)-7-isopropoxyimidazo[1,2-a]pyridine-6-carboxamide] | 0.0002 µM | 
38 | CC(C)Oc1nc2nc(C34COC(C)(C3)C4)cn2cc1C(=O)Nc1cccc2c1OCC2 [Example 377, N-(2,3-dihydrobenzofuran-7-yl)-7-isopropoxy-2-(1-methyl-2-oxabicyclo[2.1.1]hexan-4-yl)imidazo[1,2-a]pyrimidine-6-carboxamide trifluoroacetate] |  | 0.0003 µM

Source: patent publication US20230087118A1, “IMIDAZO[1,2-a][sequence] DERIVATIVES AND THEIR USE IN THE TREATMENT OF DISEASE” (priority 2019, published 2023)
